ChEMBL document CHEMBL4387766, “Synthesis and biological evaluation of PSMA-targeting paclitaxel conjugates” (Bioorg Med Chem Lett, 2019)

How the values were obtained:
[1] = Selectivity ratio of CC50 for human PSMA-deficient PC3 cells to CC50 for PSMA-positive human 22Rv1 cells; assay type: functional
[2] = Selectivity ratio of CC50 for human VA13 cells to CC50 for PSMA-positive human 22Rv1 cells
PC-3 = assay: Cytotoxicity against PSMA-deficient human PC3 cells assessed as reduction in cell viability measured after 72 hrs by MTT assay; assay type: functional; conditions: PC-3, 72 h
[3] = Cytotoxicity against HEK293T cells assessed as reduction in cell viability measured after 72 hrs by MTT assay; assay type: cell-based, HEK-293T; conditions: human
[4] = Selectivity ratio of CC50 for human VA13 cells to CC50 for PSMA-positive human LNCAP cells
[5] = Cytotoxicity against human MCF7 cells assessed as reduction in cell viability measured after 72 hrs by MTT assay; assay type: cell-based
[6] = Cytotoxicity against human VA13 cells assessed as reduction in cell viability measured after 72 hrs by MTT assay; assay type: cell-based; conditions: WI-38 VA13 cells
LNCaP = assay: Cytotoxicity against PSMA-positive human LNCAP cells assessed as reduction in cell viability measured after 72 hrs by MTT assay; assay type: functional
[7] = Cytotoxicity against human A549 cells assessed as reduction in cell viability measured after 72 hrs by MTT assay; assay type: cell-based
CWR22R [8] = assay: Antitumor activity against human 22Rv1 cells xenografted in nu/nu mouse assessed as tumor growth inhibition at 10 mg/kg, iv administered 3 times per week relative to control; assay type: functional; conditions: 22Rv1, iv, read-out: TGI
[9] = Selectivity ratio of CC50 for human PSMA-deficient PC3 cells to CC50 for PSMA-positive human LNCAP cells; assay type: functional
CWR22R [10] = assay: Cytotoxicity against PSMA-positive human 22Rv1 cells assessed as reduction in cell viability measured after 72 hrs by MTT assay; assay type: functional; conditions: 22Rv1, 72 h

Question: Which results are given for `CC(=O)O[C@H]1C(=O)[C@@]2(C)[C@H]([C@H](OC(=O)c3ccccc3)[C@]3(O)C[C@H](OC(=O)[C@H](OC(=O)CCCc4cn(CCCCCC(=O)NCCCC[C@H](NC(=O)N[C@@H](CCC(=O)O)C(=O)O)C(=O)O)nn4)[C@@H](NC(=O)c4ccccc4)c4ccccc4)C(C)=C1C3(C)C)[C@]1(OC(C)=O)CO[C@@H]1C[C@@H]2O`?
Answer: Selectivity ratio [1]: 1.13; Selectivity ratio [2]: 0.62; CC50 (PC-3): 95 nM; CC50 at 72 h [3]: < 20 nM; Selectivity ratio [4]: 0.47; CC50 at 72 h [5]: < 20 nM; CC50 at 72 h [6]: < 20 nM; CC50 (LNCaP): 58 nM; CC50 at 72 h [7]: < 20 nM; inhibition in vivo at 10 mg/kg (CWR22R [8]): 30%; Selectivity ratio [9]: 0.85; CC50 (CWR22R [10]): 120 nM
